Measured values taken from US20240343762A1, “USE OF PROTON PUMP MODULATOR IN PREPARING REAGENT” (SHANGHAI QUIETD BIOTECHNOLOGY CO. LTD., priority 2021, published 2024).

Tests used:
[1] = molecular target: T1, murine ATP6V1B2 1-172aa truncated sequence (Mus musculus, UniProt P62814); assay: Co-immunoprecipitation of EGFP-tagged QD202 with Myc-tagged ATP6V1B2 1-172aa truncated sequence in 293 cells; type: binding; conditions: Myc antibody, immunoblotting
T1 construct: expressed in transfected cells; host or cells: 293 cells
Text: Expression plasmids including murine ATP6V1B2 full-length sequence, 1-286aa truncated sequence or 1-172aa truncated sequence with a Myc tag are respectively constructed; the amino acid sequence of the murine ATP6V1B2 full-length sequence was as set forth in SEQ ID NO. 8, the amino acid sequence of the murine ATP6V1B21-286aa was as set forth in SEQ ID NO. 10; the amino acid sequence of the murine ATP6V1B21-172aa as set forth in as SEQ ID NO. 11; and these plasmids were respectively called as an ATP6V1B2 full-length expression plasmid, an ATP6V1B21-286aa expression plasmid and an ATP6V1B21-172aa expression plasmid. Meanwhile, a QD202 expression plasmid with an EGFP tag was constructed. […]
Then a Protein G agarose bead was added to be bound to the Myc antibody, so as to precipitate the ATP6V1B2 full-length protein, the 1-286aa truncated sequence or the 1-172aa truncated sequence, and proteins which were bound to one another, and finally the proteins subjected to co-immunoprecipitation was detected by virtue of an immunoblotting method.

[2] = test system: APP/PS1 transgenic AD mice; assay: New object recognition test in APP/PS1 transgenic AD mice; type: in vivo, mouse; conditions: continuously for 1 week, mice of 10 months old
Protocol: A new object recognition test was carried out by an open field box (40×40×35 cm, made of blue opaque plastic) with reference to a behavior test scheme recorded by Leger, M., et al. Object recognition test in mice. Nat Protoc. 8, 2531-2537 (2013). On the first day, mice were put into the open field box to adapt for 10 min. On the second day, each mouse was lightly put in the center of the box, two similar objects (a battery I) were put in the central area and freely explore for 10 min, and then the mice were sent back to feeding cages. After 3 h, the mice were put back to the box again (one battery was replaced with a doll toy which was 10 cm high) for 10 min to carry out a memory retention test. A video was analyzed by Etho Vision XT 14 software, and the time for exploring new/old objects by the mice was recorded. The discrimination index was computed as (Tnovel−Tfamliar)/(Tnovel+Tfamiliar).
APP/PS1 transgenic mice of 10 months old (purchased from MODEL ORGANISMS) were selected, and equally divided into three groups; the mice were administrated with a PBS buffer solution (group 2), […]

[3] = test system: APP/PS1 transgenic AD mice; assay: Morris water maze test in APP/PS1 transgenic AD mice; type: in vivo, mouse; conditions: continuously for 1 week, mice of 10 months old
Protocol: Morris water maze referred to the test solutions recorded in Qing-Feng Wu et al., Fibroblast growth factor 13 is a microtubule-stabilizing protein modulating neuronal polarization and migration. Cell. 149, 1549-1564 (2012). The test was carried out in a circular pool filled with water (120 cm in diameter, 30 cm in depth, titanium dioxide was added to make opaque, kept temperature at 21±1° C.) in a room with a fixed environment. The test was divided into an adaptation period (1 day), a training period (5-6 days) and a testing period (1 day). Adaptation period: the platform was placed 0.5 cm above the water surface, and the mice were guided to the platform. Training day: the platform was placed 0.5 cm underwater, and the mice were trained to find the platform. […] Training were performed 4 times a day, 4 times a day (between 8:00 a.m. to 4:00 p.m.), the mice were dropped from different water points each time, each training was performed at interval of at least 30 min, a total of 6 days, and the order of water points was different every day. Test Day: test was performed 24 h after the end of the training day. […] The footage was analyzed with Etho Vision XT 14 software, recording parameters including the escape latency of entering the target quadrant, the number of platform crossings, and the dwell time in the target quadrant. […]

T1 sequence (P62814 1-172): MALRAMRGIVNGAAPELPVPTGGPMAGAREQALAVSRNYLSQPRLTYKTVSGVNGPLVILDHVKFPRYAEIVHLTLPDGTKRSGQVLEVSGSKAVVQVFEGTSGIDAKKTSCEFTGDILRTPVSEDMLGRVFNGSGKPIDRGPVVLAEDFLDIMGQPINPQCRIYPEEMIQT

Substance: QD202: polypeptide synthesized according to the amino acid sequence as set forth in SEQ ID NO. 1 (YGRKKRRQRRRSPVDVVCS; QD202)
- binding to ATP6V1B2 1-172aa truncated sequence by co-immunoprecipitation [1]: only the full-length ATP6V1B2 protein can be combined
- learning and cognitive functions in new object recognition ([2]; intragastric, 6.25 mg/kg): obvious improvement of learning and cognitive functions
- learning and cognitive functions in new object recognition ([2]; intravenous, 1.25 mg/kg): obvious improvement on learning and cognitive functions
- learning and cognitive functions in water maze behavior ([3]; intragastric, 6.25 mg/kg): obvious improvement of learning and cognitive functions
- learning and cognitive functions in water maze behavior ([3]; intravenous, 1.25 mg/kg): obvious improvement on learning and cognitive functions
